Laboratory results as given in paper PMC6459286, “Intestinal TGR5 agonism improves hepatic steatosis and insulin sensitivity in Western diet-fed mice” (American Journal of Physiology - Gastrointestinal and Liver …, 2019).
Marks after values point to notes of the source that are not given here. One block for each molecule: values may come before it.

What was measured:
gallbladder emptying = test: Gallbladder emptying in mice; details: CD-1 mice, single oral dose; RDX8940 30 and 100 mg/kg, INT-777 30 mg/kg
[1] = Caco-2 bidirectional permeability assay; details: human, Caco-2; for recovery: Caco-2, Recovery
P-gp = test: MDCK bidirectional permeability assay; details: dog; for recovery: + verapamil 100 μM
[2] = tested on: C57BL/6 mice fed Western diet; test: Western diet-fed mice (NAFLD and mild insulin resistance model); assay type: in vivo; details: for 4-h fasted plasma glucose vs vehicle: days 15 and 29, agent alone
Protocol: Six-week-old male C57BL/6 mice (Taconic) were fed Western diet chow (Harlan Teklad TD.88137, 21.2% fat, 0.2% cholesterol, 42.0% kcal from fat) for 10 wk to model NAFLD and mild insulin resistance. […] An additional vehicle (administered orally twice daily) control group (lean) was fed standard chow (Harlan Teklad 2018) throughout the study (n = 10). […], mice were fasted for 4 h after the first dose, and blood was then collected via the tail vein for measurement of plasma glucose and insulin concentrations using a glucometer (Abbott Animal Health, Abbott Park, IL) and an MSD immunoassay (Meso Scale Discovery), respectively. On day 29, mice were fasted longer (a total of 7–8 h), were anesthetized, and had blood collected via cardiac puncture for the measurement of GLP-1 levels. Mice were then euthanized under anesthesia for the collection of liver tissue. Hepatic triglyceride and cholesterol content were determined at the University of California, Davis, CA, using the Folch method ([17]).

[3] = tested on: intestinal L-cell hormones (aGLP-1, tGLP-1, tGLP-2, PYY); test: Secretion of intestinal L-cell hormones in mice fed a standard diet; assay type: in vivo, C57BL/6 mice; details: repeat dosing 4 days, 8 h
Protocol: Adult male C57BL/6 mice (Taconic) fed standard chow (Harlan Teklad 2018) were dosed orally with vehicle (2% DMSO, 10% HPβCD, 10 mM PBS-HCl) or RDX8940 in separate experiments, as described below. After dosing, mice were anesthetized, and blood was collected via cardiac puncture into K3EDTA-containing tubes (Greiner Bio-one); then, the mice were euthanized. If active GLP-1 (aGLP-1) concentrations were measured, sitagliptin and aprotinin were added to the tubes before blood collection. Blood was processed to plasma for the measurement of incretins; aGLP-1, tGLP-1, and PYY concentrations were assessed using MSD immunoassays (Meso Scale Discovery), whereas total GLP-2 (tGLP-2) concentrations were quantified using a mouse GLP-2 ELISA (ALPCO, Salem, NH).
In the first experiment, mice were administered vehicle or a single dose of RDX8940 (10, 30, or 100 mg/kg), fasted, and plasma tGLP-1 concentrations were measured 8 h after dose. In a second experiment, mice were administered repeated doses of vehicle or RDX8940 30 mg/kg twice daily over 4 days. After the last dose, the mice were fasted and plasma tGLP-1 concentrations were measured 8 h later. […] After the single or last dose, the mice were fasted, and plasma concentrations of aGLP-1, tGLP-1, tGLP-2, and PYY were measured 8, 10, and 12 h later. […]

C57BL/6 mice fed HFCD = test: GLP-1 and GLP-2 agonists in HFCD-fed mice; assay type: in vivo; details: for Plasma glucose: 4-h fasted; for Plasma glucose / Plasma total cholesterol / Plasma triglycerides: day 28, means ± SE; for Plasma total bilirubin levels: data not shown; for Body weight: day 33, liraglutide 200 µg/kg or teduglutide 400 µg/kg sc twice daily, means ± SE; for Plasma insulin: day 34, means ± SE; for HFCD-increased hepatic expression of genes involved in inflammation and fibrotic processes: liver RNA sequencing
Protocol: At 19 wk old, mice began treatment. […] Mice were weighed each week. Before treatment and on days 14 and 28 of treatment, the mice were fasted for 4 h, and blood was then collected via the tail vein and processed to plasma for measurement of alanine aminotransferase (ALT), aspartate aminotransferase (AST), alkaline phosphatase (AP), glucose, triglycerides, and total cholesterol using an ACE Axcel clinical analyzer (Alfa Wassermann, West Caldwell, NJ). After 34 days of treatment, the mice were fasted for 6–8 h and were euthanized under anesthesia. Blood was collected and processed to plasma for measurement of insulin [using an MSD immunoassay (Meso Scale Discovery)], and ALT, AST, AP, and total bilirubin levels [using an ACE Axcel clinical analyzer (Alfa Wassermann)]. The entire liver was collected and weighed, and samples of liver were weighed for measurement of triglycerides and total cholesterol levels at University of California, Davis, CA [using the Folch method ([17])]; histological assessments of steatosis, inflammation, and fibrosis were performed using hematoxylin-and-eosin stains, and Sirius red stains (Wax-it Histology Services, Vancouver, BC, Canada and Pacific Tox Path, Ellensburg, WA). Scoring of hepatic pathology was conducted according to descriptions provided by Thoolen et al. ([32]). For gene expression studies, total RNA from mouse liver tissues was isolated using a RNeasy 96 universal tissue kit (Qiagen, Hilden, Germany). A gene expression library was prepared with 100 ng of each RNA sample using a TruSeq Stranded mRNA Library NeoPrep kit (Illumina, Hayward, CA). Library samples were subsequently multiplexed and sequenced using an Illumina NextSeq 500 sequencer (San Diego, CA). Sequences of two 75-base pair ends were obtained for all samples and mapped to the mouse transcriptome, using STAR (Spliced Transcripts Alignment to a Reference) alignment with default parameters (Basespace Cloud, Illumina) and normalized using trimmed mean of M-values method in EdgeR software (Bioconductor; https://www.bioconductor.org/). Differentiation gene expression analysis was evaluated using EdgeR. R platform (https://www.r-project.org/) was used for principal component analysis and heat map analysis. Gene ontology and network correlation analysis were performed using Gorilla (http://cbl-gorilla.cs.technion.ac.il/) and WGNCA (https://horvath.genetics.ucla.edu/html/CoexpressionNetwork/Rpackages/WGCNA/).

Caco-2 cell monolayers = test: Caco-2 bidirectional permeability assay
MDCK cell monolayers = test: MDCK bidirectional permeability assay

Molecule: INT-777
Gallbladder emptying (gallbladder weight, egg yolk vs saline) (gallbladder emptying): inhibition of gallbladder emptying

Molecule: COc1cc2c(c(OC)c1OC)-c1ccc(OC)c(=O)cc1[C@@H](NC(C)=O)CC2 [Colchicine]
Papp A→B at 10 µM [1]: 0.23 ×10⁻⁶ cm/s
Papp B→A at 10 µM [1]: 6.18 ×10⁻⁶ cm/s
efflux ratio at 10 µM [1]: 27.4
recovery ([1]; A→B): 69%
recovery ([1]; B→A): 80%
Papp A→B at 10 µM (P-gp): 0.85 ×10⁻⁶ cm/s
Papp B→A at 10 µM (P-gp): 2.31 ×10⁻⁶ cm/s
efflux ratio at 10 µM (P-gp): 2.72
recovery (P-gp; A→B): 120%
recovery (P-gp; B→A): 113%

Molecule: CC#CCn1c(N2CCC[C@@H](N)C2)nc2c1c(=O)n(Cc1nc(C)c3ccccc3n1)c(=O)n2C [linagliptin]
4-h fasted plasma insulin vs vehicle ([2]; day 29, agent alone): lowered
4-h fasted plasma glucose vs vehicle [2]: lowered
aGLP-1 levels in the portal vein vs vehicle ([3]; monotherapy (RDX8940 30 mg/kg b.i.d.; linagliptin 10 mg/kg q.d.)): did not significantly affect
Systemic concentrations of aGLP-1 vs vehicle ([3]; monotherapy): did not significantly increase

Molecule: liraglutide
4-h fasted plasma insulin vs vehicle ([2]; day 29, agent alone): lowered
Hepatic triglyceride levels ([2]; day 29, agent alone, RDX8940 P < 0.001): reduced
Hepatic cholesterol levels ([2]; day 29, agent alone, RDX8940 P < 0.01): reduced
Liver weight ([2]; day 29, agent alone, RDX8940 P < 0.05): reduced
4-h fasted plasma glucose vs vehicle [2]: lowered
Hepatic total cholesterol content vs vehicle (C57BL/6 mice fed HFCD): significantly decreased
Hepatic triglyceride content vs vehicle (C57BL/6 mice fed HFCD): significantly decreased
Hepatic weight vs vehicle (C57BL/6 mice fed HFCD): significantly decreased
Plasma ALT levels vs vehicle (C57BL/6 mice fed HFCD): significantly decreased
Plasma AP levels vs vehicle (C57BL/6 mice fed HFCD): significantly decreased
Plasma AST levels vs vehicle (C57BL/6 mice fed HFCD): significantly decreased
Plasma glucose (C57BL/6 mice fed HFCD): 185 ± 13 mg/dL
Plasma total bilirubin levels (C57BL/6 mice fed HFCD): Neither liraglutide nor teduglutide significantly affected
Plasma total cholesterol (C57BL/6 mice fed HFCD): 230 ± 16 mg/dL
Plasma triglycerides (C57BL/6 mice fed HFCD): 59 ± 3 mg/dL
Body weight (C57BL/6 mice fed HFCD): 31.4 ± 0.8 g
Plasma insulin (C57BL/6 mice fed HFCD): 0.40 ± 0.11 ng/mL
HFCD-increased hepatic expression of genes involved in inflammation and fibrotic processes (C57BL/6 mice fed HFCD): abrogated this effect in many cases
Fibrosis score (C57BL/6 mice fed HFCD; median): 2
Microvesicular steatosis score (C57BL/6 mice fed HFCD; median): 0.5 ^****

Molecule: CC(C)NCC(O)COc1cccc2ccccc12 (stereo not shown) [Propranolol]
Recovery, A→B (Caco-2 cell monolayers; Caco-2): 56%
Recovery, B→A (Caco-2 cell monolayers; Caco-2): 78%
Papp A→B (Caco-2 cell monolayers; Caco-2, 10 μM): 67.06 cm/s × 10^−6
Papp B→A (Caco-2 cell monolayers; Caco-2, 10 μM): 19.62 cm/s × 10^−6
Papp A→B (MDCK cell monolayers; 10 μM, without verapamil): 14.19 cm/s × 10^−6
Papp B→A (MDCK cell monolayers; 10 μM, without verapamil): 7.03 cm/s × 10^−6
Recovery, B→A (MDCK cell monolayers; + verapamil 100 μM): 98%

Papp A→B at 10 µM [1]: 19.4 ×10⁻⁶ cm/s
Papp B→A at 10 µM [1]: 31.6 ×10⁻⁶ cm/s
recovery ([1]; A→B): 64%
recovery ([1]; B→A): 80%
Molecule: CC(CCc1ccccc1)NCC(O)c1ccc(O)c(C(N)=O)c1 (stereo not shown) [Labetalol]

Molecule: teduglutide
Hepatic total cholesterol content vs vehicle (C57BL/6 mice fed HFCD): significantly decreased
Hepatic triglyceride content vs vehicle (C57BL/6 mice fed HFCD): significantly decreased
Hepatic weight vs vehicle (C57BL/6 mice fed HFCD): significantly decreased
Plasma ALT levels vs vehicle (C57BL/6 mice fed HFCD): significantly decreased
Plasma AP levels vs vehicle (C57BL/6 mice fed HFCD): significantly decreased
Plasma AST levels vs vehicle (C57BL/6 mice fed HFCD): significantly decreased
Plasma glucose (C57BL/6 mice fed HFCD): 205 ± 5 mg/dL
Plasma total bilirubin levels (C57BL/6 mice fed HFCD): Neither liraglutide nor teduglutide significantly affected
Plasma total cholesterol (C57BL/6 mice fed HFCD): 279 ± 16 mg/dL
Plasma triglycerides (C57BL/6 mice fed HFCD): 84 ± 1 mg/dL
Body weight (C57BL/6 mice fed HFCD): 37.9 ± 0.9 g
Plasma insulin (C57BL/6 mice fed HFCD): 0.95 ± 0.20 ng/mL
HFCD-increased hepatic expression of genes involved in inflammation and fibrotic processes (C57BL/6 mice fed HFCD): abrogated this effect in many cases
Fibrosis score (C57BL/6 mice fed HFCD; median): 2
Macrovesicular steatosis score (C57BL/6 mice fed HFCD; median): 2.00 ^*
Microvesicular steatosis score (C57BL/6 mice fed HFCD; median): 2.0

Papp A→B at 10 µM [1]: 0.91 ×10⁻⁶ cm/s
Papp B→A at 10 µM [1]: 3.02 ×10⁻⁶ cm/s
efflux ratio at 10 µM [1]: 3.34
recovery ([1]; A→B): 78%
recovery ([1]; B→A): 87%
Molecule: CNC(=C[N+](=O)[O-])NCCSCc1ccc(CN(C)C)o1 [Ranitidine]
